Series [1] deals with patients with advanced non-small cell lung carcinoma (NSCLC). The experiment in a line: Japan Phase III Clinical Trial: chemotherapy-induced peripheral neuropathy (Peripheral Neuropathy Questionnaire, PNQ). The class given is in vivo. From the text: As utilized herein, the term "clinical trial" or "trial", refers to the Japan Phase III Clinical Trial disclosed in the present invention which was utilized to show the ability of Tavocept™ (also referred to in the literature as disodium 2,2'-dithio-bis-ethane sulfonate, dimesna, or BNP7787) to prevent and/or reduce peripheral neuropathy induced by paclitaxel/cisplatin combination therapy. […] The effects of Tavocept™ on the Quality of Life (QOL) of patients under anticancer treatment was also evaluated using the QOL questionnaire, EORTC QLQ-C30. Whether or not Tavocept™ would affect the efficacy of paclitaxel/cisplatin combination therapy was also evaluated based on the response rate, aggravation-free survival period, and total survival period. […]
The Japan Phase III Clinical Trial was conducted as a double-blind study because peripheral neuropathy is diagnosed based on subjective symptoms evaluated through clinical interviews, lab tests, and the like. […] Because the severity of peripheral neuropathy is evaluated based on patients' reports (i.e., subjective symptoms), the Peripheral Neuropathy Questionnaire (PNQ^©) was used in primary evaluation. […]

The subject of series [2] is non-small cell lung carcinoma (NSCLC) patients. The experiment in a line: Japan Phase III Clinical Trial: decrease in hemoglobin, erythrocyte and hematocrit levels. The class given is in vivo. The conditions noted are these: Tavocept arm with paclitaxel and cisplatin, Fig. 3. The source says:
(§1) As utilized herein, the term "clinical trial" or "trial", refers to the Japan Phase III Clinical Trial disclosed in the present invention which was utilized to show the ability of Tavocept™ (also referred to in the literature as disodium 2,2'-dithio-bis-ethane sulfonate, dimesna, or BNP7787) to prevent and/or reduce peripheral neuropathy induced by paclitaxel/cisplatin combination therapy. The incidence and severity of adverse reactions, time to their onset, etc. and the like, were compared between patients treated with Tavocept™ and those given a placebo using Quality of Life (QOL) questionnaires (i.e., Peripheral Neuropathy Questionnaire (PNQ^©) and CIPN-20)) and the National Cancer Institute - Common Toxicity Criteria (NCI-CTC). The effects of Tavocept™ on the Quality of Life (QOL) of patients under anticancer treatment was also evaluated using the QOL questionnaire, EORTC QLQ-C30. Whether or not Tavocept™ would affect the efficacy of paclitaxel/cisplatin combination therapy was also evaluated based on the response rate, aggravation-free survival period, and total survival period. In order to make all these evaluations, Tavocept™ (approximately14-22 g/m^2, most preferably approximately 18.4 g/m^2) or placebo (0.9% NaCl) was administered to non-small cell lung carcinoma (NSCLC) patients, including adenocarcinoma patients, under chemotherapy with paclitaxel (approximately 160-190 mg/m^2, most preferably approximately 175 mg/m^2) and cisplatin (approximately 60-100 mg/m^2, most preferably approximately 80 mg/m^2), every 3 weeks (and repeated for a minimum of 2 cycles).
(§2) Data was recently unblinded from a multicenter double-blind randomized placebo-controlled Phase III clinical trial of the Formula (I) compound Tavocept™ (also known as BNP7787, disodium 2,2'-dithio-bis-ethane sulfonate, and dimesna) conducted in Japan (hereinafter the "Japan Phase III Clinical Trial") and involving patients with advanced non-small cell lung carcinoma (NSCLC) who received the chemotherapeutic drugs paclitaxel and cisplatin. […]

Series [3] has as its system non-small cell lung carcinoma (NSCLC). The experiment in a line: Japan Phase III Clinical Trial: tumor response rate to chemotherapy. Type of series: in vivo, patients. The conditions noted are these: Tavocept arm with paclitaxel and cisplatin, Fig. 4.
Source text: as §1, with “In order to make all these evaluations, Tavocept™ (approximately14-22 g/m^2, most preferably approximately 18.4 g/m^2) or placebo (0.9% NaCl) was administered to non-small cell lung carcinoma (NSCLC) patients, including adenocarcinoma patients, under chemotherapy with paclitaxel (approximately 160-190 mg/m^2, most preferably approximately 175 mg/m^2) and cisplatin (approximately 60-100 mg/m^2, most preferably approximately 80 mg/m^2), every 3 weeks (and repeated for a minimum of 2 cycles).” left out

For series [4] the test system is unchanged. The experiment in a line: Japan Phase III Clinical Trial: patient survival, NSCLC. The class given is in vivo, patients.
Source text: as §1, §2

The test system of the next series is adenocarcinoma. The experiment in a line: Japan Phase III Clinical Trial: patient survival, adenocarcinoma. The class given is in vivo, patients.
Source text: as §1, with “In order to make all these evaluations, Tavocept™ (approximately14-22 g/m^2, most preferably approximately 18.4 g/m^2) or placebo (0.9% NaCl) was administered to non-small cell lung carcinoma (NSCLC) patients, including adenocarcinoma patients, under chemotherapy with paclitaxel (approximately 160-190 mg/m^2, most preferably approximately 175 mg/m^2) and cisplatin (approximately 60-100 mg/m^2, most preferably approximately 80 mg/m^2), every 3 weeks (and repeated for a minimum of 2 cycles).” left out

Series [5] deals with non-small cell lung carcinoma (NSCLC) patients. The experiment in a line: Japan Phase III Clinical Trial: other chemotherapy-related symptoms and toxicities. Type of series: in vivo.
Source text: as §1
Data was recently unblinded from a multicenter double-blind randomized placebo-controlled Phase III clinical trial of the Formula (I) compound Tavocept™ (also known as BNP7787, disodium 2,2'-dithio-bis-ethane sulfonate, and dimesna) conducted in Japan (hereinafter the "Japan Phase III Clinical Trial") and involving patients with advanced non-small cell lung carcinoma (NSCLC) who received the chemotherapeutic drugs paclitaxel and cisplatin.
Patients admitted into the trial included those patients without previous treatment (excluding surgical treatment, administration of Picibanil into the serous membrane, irradiation of 30% or less hematopoietic bone, or oral chemotherapeutic agents within 3 months of entry in the trial).
The Japan Phase III Clinical Trial was conducted as a double-blind study because peripheral neuropathy is diagnosed based on subjective symptoms evaluated through clinical interviews, lab tests, and the like. Accordingly, evaluations by both physicians and patients are highly important. […] A placebo was used as control since there is no established therapy or drug for preventing peripheral neuropathy. Because the severity of peripheral neuropathy is evaluated based on patients' reports (i.e., subjective symptoms), the Peripheral Neuropathy Questionnaire (PNQ^©) was used in primary evaluation. CIPN-20 and NCI-CTC were used in secondary evaluation. The incidence and severity of adverse reactions, time to their onset, etc. and the like, were compared between patients treated with Tavocept™ and those given a placebo using the aforementioned methods.
In order to conduct the present trial, Tavocept™ (approximately14-22 g/m^2, most preferably approximately 18.4 g/m^2) or placebo (0.9% NaCl) was administered to non-small cell lung carcinoma (NSCLC) patients receiving chemotherapy with paclitaxel (approximately 160-190 mg/m^2, most preferably approximately 175 mg/m^2) and cisplatin (approximately 60-100, most preferably approximately 80 mg/m^2), every 3 weeks (and repeated for a minimum of 2 cycles).

Where [6] appears, read: clinical trial population, summary statement.

Each structure is given as a SMILES string.

These results are taken from patent publication EP2249825B1, “TREATMENT METHODS AND COMPOSITIONS FOR LUNG CANCER, ADENOCARCINOMA, AND OTHER MEDICAL CONDITIONS” (BIONUMERIK PHARMACEUTICALS, INC., priority 2008, dated 2009).

In the case of `O=S(=O)([O-])CCSSCCS(=O)(=O)[O-].[Na+].[Na+]` [Tavocept™, disodium 2,2'-dithio-bis-ethane sulfonate], in series [1] (Tavocept and chemotherapy vs chemotherapy and placebo, summary statement), the chemotherapy-induced peripheral neuropathy result is given as “medically-important reductions”. Besides, in series [1] (paclitaxel/Tavocept/cisplatin regimen vs paclitaxel/saline placebo/cisplatin regimen, PNQ, Fig. 1), the “reduction in severe (Grade D or E) peripheral neuropathy” value is recorded as about 50%. Moreover, in series [2] (placebo arm 5), the “patients with Grade 3 (severe) decrease in hematocrit levels” value was determined as 1 patients and the “patients with Grade 3 (severe) decrease in red blood cell” value was found to be 1 patients. In series [2] (placebo arm 8), the “patients with Grade 3 (severe) decrease in hemoglobin” value is on record as 2 patients. For the same molecule, in series [3] (Independent Radiological Committee, placebo arm 28.6%), the “response rate as measured by the IRC” value turned out to be 33.3%. For the same molecule, the “Response Rate, as measured by physicians” value in series [3] (placebo arm 33.0%) was 41.9%. The “increase in median survival time” value in series [4] (NSCLC patients, paclitaxel/Tavocept/cisplatin vs paclitaxel/saline placebo/cisplatin, Fig. 5) is on record as “up to 40 days”. In addition, the survival period entry in series [4] (female NSCLC patients, paclitaxel/Tavocept/cisplatin vs paclitaxel/saline placebo/cisplatin, Fig. 6) is “longer survival period”. Besides, in series [4] (patients with advanced NSCLC receiving Tavocept and chemotherapy, summary statement), the survival times entry is “increased survival times”. Further, the “increase in median survival time” value with adenocarcinoma (adenocarcinoma patients, paclitaxel/Tavocept/cisplatin vs paclitaxel/saline placebo/cisplatin, Fig. 7) is “up to 138 days”. In addition, the survival time result in the series on adenocarcinoma (patients with adenocarcinoma receiving Tavocept and chemotherapy, summary statement) is recorded as “medically-important increase”. Further, in series [5] (setting [6]), the chemotherapy-induced kidney damage result was “medically-important reductions” and the chemotherapy-induced vomiting/emesis entry is given as “medically-important reductions”. For the same molecule, the anorexia entry in series [5] (p = 0.0029, paclitaxel/Tavocept/cisplatin vs placebo regimen) is “reductions”. Besides, the fatigue entry in series [5] (p = 0.0163, paclitaxel/Tavocept/cisplatin vs placebo regimen) is “reductions”. For the same molecule, the nausea/vomiting entry in series [5] (p = 0.0240, paclitaxel/Tavocept/cisplatin vs placebo regimen) is “reductions”. Further, the diarrhea entry in series [5] (p = 0.0859, paclitaxel/Tavocept/cisplatin vs placebo regimen) is listed as “reductions”. Also, the insomnia result in series [5] (p = 0.1108, paclitaxel/Tavocept/cisplatin vs placebo regimen) was “reductions”. Further, in series [5] (p = 0.1114, paclitaxel/Tavocept/cisplatin vs placebo regimen), the constipation result is listed as “reductions”.
